Read-outs that look alike come from different tables or passages of the source.
Columns and labels:
[1] = system: colon cancer cell line SW480; conditions: cited from earlier work
[2] = system: human leukemia cell line HL60; conditions: cited from earlier work
[3] = system: sarcoma S-180; conditions: cited from earlier work
[4] = system: CsOMT6; experiment: O-methyltransferase enzyme assay with recombinant CsOMT6; assay type: biochemical, Cannabis sativa; conditions: 1 mM substrate, [14C]-SAM, 30 min at 37° C.
[5] = system: CsOMT21; experiment: O-methyltransferase enzyme assay with recombinant CsOMT21; assay type: biochemical, Cannabis sativa; conditions: 1 mM substrate, [14C]-SAM, 30 min at 37° C.
[6] = system: CsOMT1; experiment: O-methyltransferase enzyme assay with recombinant CsOMT1; assay type: biochemical, Cannabis sativa; conditions: compound as substrate, 1 mM, [14C]-SAM methyl donor, relative to dihydroresveratrol
[7] = substrate: Oc1ccc(CCc2cc(O)cc(O)c2)cc1; experiment: Enzyme kinetics (Michaelis-Menten) of recombinant CsOMT1 O-methyltransferase with dihydroresveratrol as substrate (FIG. 6C); assay type: biochemical, Cannabis sativa; conditions: other: substrate dihydroresveratrol, standard assay conditions (50 mM Tris-HCl, pH 7.5, 5 mM MgCl2, 10% glycerol, 37° C, [14C]-SAM methyl donor), non-linear regression, Michaelis-M
Experimental: FIG. 6. Enzymatic methylation activity of CsOMT1. (A) Reaction catalyzed by CsOMT1. (B) Representative chromatogram showing the reaction products resolved by HPLC that illustrates the separation of the methylated dihydroresveratrol from its corresponding substrate (dihydroresveratrol, DHR). The identity of 3-O-methyl-dihydroresveratrol (pinobistilbene) was structurally determined by NMR. (C) Kinetic analysis of CsOMT1. Recombinant CsOMT1 was assayed under standard assay conditions at the indicated concentrations of dihydroresveratrol. Kinetic parameters were determined by non-linear regression analysis using the Michaelis-Menten kinetics model of the SigmaPlot 12.3 software.
Expression of recombinant prenyltransferases in E. coli. In typical aspects, open reading frames encoding soluble aromatic prenyltransferases from bacteria or fungi, for example NphB, HypSC, CloQ, NovQ, Fur7, or PpzP are synthesized commercially. […]
Recombinant protein expression of CsOMTs in E. coli. Open reading frames corresponding to O-methyltransferases from C. sativa are synthesized by commercially. […]
O-methyltransferase enzyme assays. […] The enzymatic products are extracted with four volumes of ethyl acetate and quantified using a scintillation counter. […] The eluted products are detected by absorption at the 210-350 nm range and quantified relative to authentic standards. […]

Question: Which results are given for `CC(C)=CCc1cc(/C=C/C(=O)O)cc(CC=C(C)C)c1O` [artepillin C]?
Answer: apoptotic events [1]: induce apoptotic events; apoptotic events [2]: induce apoptotic events; tumor growth ([3]; mouse, in vivo, po): significant reduction in tumor growth

Question: For `O=c1c(O)c(-c2ccc(O)c(O)c2)oc2cc(O)cc(O)c12` [quercetin], which methylation of substrate [4] is on record?
Answer: Its methylation of substrate is “preferred methylation”.

Question: What about the methylation of substrate [5] of the same molecule?
Answer: The methylation of substrate was “able to methylate”.

Question: With `CC(C)=CCc1cc(/C=C/C(=O)O)ccc1O` [drupanin] as the molecule, how does the apoptotic events ([1]; SW480 (Akao et al 2008)) read?
Answer: Its apoptotic events is “induce apoptotic events”.

Question: And the apoptotic events ([2]; HL60 (Akao et al 2008))?
Answer: The apoptotic events was “induce apoptotic events”.

Question: What about the tumor growth ([3]; oral administration, mice with sarcoma S-180 (Mishima et al 2005)) of the same molecule?
Answer: The tumor growth was “significant reduction in tumor growth”.

Question: Which methylation of substrate [5] does the source give for `O=c1cc(-c2ccc(O)c(O)c2)oc2cc(O)cc(O)c12` [luteolin] here?
Answer: The methylation of substrate was “able to methylate”.

Question: For `COc1cc(O)cc(CCc2cccc(O)c2)c1` [batatasin III], which “O-methyltransferase activity relative to that with DHR” value [6] is on record?
Answer: Its value is “about 25%”.

B1: CsOMT1 (recombinant O-methyltransferase, SEQ ID NO: 7, PK03555; 6×His-tagged, expressed in E. coli) (Cannabis sativa) (protein)
chain: MEADGEDAVLRGQVEIWKYMLSFADSMALKCAVELQLADIIHSHTSPITLSQIASAIPGATSPDLSCLARIMRLLVRRRIFTQHQKPKSDGEEEEALYGPTHSSRWLLTKTNDHDQLTLAPMILMENDPRLMAPWHCFSRCVKEGGVAFKKAHNGQSIWEFGAENPEINKLFNDAMECTAKVVMKAILSHYSDGGFSDIKSMVDVGGGTGGSISEIVRSYPHIKGINFDLPHVIATAPPYSGVSHVGGDMFRSVPTADAIFMKWILHDWSDEDCVKILKNCRKAIAEESGKVIIVESVLEEESNNNNNNNEVFGDTALMLDLVMVAHTTGGKERTQKQWKTILEQGGFPRYNFIKIKALPSIIEAYPN
Question: With B1 as the molecule, how does the Km [7] read?
Answer: Its Km is 22.2 ± 4.6 µM.

Reference: patent publication US20240026314A1, “POLYPEPTIDES FOR USE IN THE SYNTHESIS OF BIOACTIVE PHENOLIC COMPOUNDS” (priority 2020, published 2024)
